Type in all cases: physicochemical
Data set [1] is described as follows: Thermogravimetric Analysis (TGA), decomposition. Particulars: ramp from 25° C. to 300° C. at 10° C./min. An excerpt: X-Ray Powder Diffraction (XRPD): Compound 1 crystalline forms were characterized by XRPD. The X-Ray Powder Diffraction (XRPD) was obtained from Bruker D8 Advance ECO X-ray Powder Diffractometer (XRPD) instrument. The general experimental procedures for XRPD were: (1) X-ray radiation from copper at 1.5418 Å and LYNXEYE™ detector; (2) X-ray power at 40 kV, 25 mA; and (3) the sample powder was dispersed on a zero-background sample holder. The general measurement conditions for XRPD were: Start Angle 3 degrees; Stop Angle 30 degrees; Sampling 0.015 degrees; and Scan speed 2 degree/min. Differential Scanning calorimetry (DSC): Compound 1 crystalline forms were characterized by DSC. The DSC was obtained from TA Instruments Differential Scanning calorimetry, Discovery DSC2500 with auto sampler. The DSC instrument conditions were as follows: 20-300° C. at 10° C./min; Tzero aluminum sample pan and lid; and nitrogen gas flow at 50 mL/min. Thermogravimetric Analysis (TGA): Compound 1 crystalline forms were also characterized by TGA. The TGA was obtained from TA Instruments Thermogravimetric Analyzer, Discovery TGA5500 with auto sampler. The general experimental conditions for TGA were: ramp from 25° C. to 300° C. at 10° C./min; nitrogen purge gas flow at 25 mL/min; platinum sample holder.

Data set [2] can be described thus: water dynamic vapor sorption (DVS) analysis. The following applies: for water absorbed (DVS): 80% RH and 25° C., sample pre-dried under dried nitrogen for 1 hour (Form I at 50° C., Form IV at 25° C.). On the procedure:
(§1) Form I is a non-solvate and non-hydrate crystalline form. On DSC, it first undergoes dehydration at below 125° C. followed by melting at around 148-160° C. […] On TGA, approximately 2.4% weight loss is observed at below 120° C., which is mainly due to dehydration. The compound decomposes above 160° C. after melting. Like the amorphous powder of Compound 1 drug substance, this non-solvate and non-hydrate crystalline form (Form I) is hygroscopic. […] It decomposes above 160° C. after melting. During water dynamic vapor sorption (DVS) analysis of this non-solvate and non-hydrate crystalline form (Form I), approximately 6.5% of water was absorbed at 80% RH and 25° C. for this crystalline form and the sample was pre-dried at 50° C. under dried nitrogen (N2) for 1 hour before the DVS analysis. For comparison, approximately 12% of water was absorbed at 80% RH and 25° C. for the amorphous powder.
(§2) Like the amorphous powder of Compound 1 drug substance, this meta-stable non-solvate crystalline form (Form IV) is hygroscopic. During water dynamic vapor sorption (DVS) analysis of this non-solvate crystalline form (Form IV), approximately 8.2% of water was absorbed at 80% RH and 25° C. for this crystalline form and the sample was pre-dried at 25° C. under dried nitrogen (N2) for 1 hour before the DVS analysis.

Data set [3] is described as follows: solid state form stability under water, humidity and drying conditions. On the procedure: as §1, §2

`Cc1c(Nc2nccc3cc(CN4CC[C@@H](O)C4)cnc23)cccc1-c1cccc(-c2nc3cc(CN4CC[C@@H](C(=O)O)C4)cc(C#N)c3o2)c1C` [Form III, (R)-1-((7-cyano-2-(3′-(3-(((R)-3-hydroxypyrrolidin-1-yl)methyl)-1,7-naphthyridin-8-ylamino)-2,2′-dimethylbiphenyl-3-yl)benzo[d]oxazol-5-yl)methyl)pyrrolidine-3-carboxylic acid]: the “decomposition temperature (TGA)” value in data set [1] is “above 160 °C”.

As to `Cc1c(Nc2nccc3cc(CN4CC[C@@H](O)C4)cnc23)cccc1-c1cccc(-c2nc3cc(CN4CC[C@@H](C(=O)O)C4)cc(C#N)c3o2)c1C` [Form II, (R)-1-((7-cyano-2-(3′-(3-(((R)-3-hydroxypyrrolidin-1-yl)methyl)-1,7-naphthyridin-8-ylamino)-2,2′-dimethylbiphenyl-3-yl)benzo[d]oxazol-5-yl)methyl)pyrrolidine-3-carboxylic acid], the “decomposition temperature (TGA)” value in data set [1] was “above 170 °C”.

On to `Cc1c(Nc2nccc3cc(CN4CC[C@@H](O)C4)cnc23)cccc1-c1cccc(-c2nc3cc(CN4CC[C@@H](C(=O)O)C4)cc(C#N)c3o2)c1C` [Form V, (R)-1-((7-cyano-2-(3′-(3-(((R)-3-hydroxypyrrolidin-1-yl)methyl)-1,7-naphthyridin-8-ylamino)-2,2′-dimethylbiphenyl-3-yl)benzo[d]oxazol-5-yl)methyl)pyrrolidine-3-carboxylic acid], for which the “decomposition temperature (TGA)” value in data set [1] was “above 160 °C”.

Regarding `Cc1c(Nc2nccc3cc(CN4CC[C@@H](O)C4)cnc23)cccc1-c1cccc(-c2nc3cc(CN4CC[C@@H](C(=O)O)C4)cc(C#N)c3o2)c1C` [Form IV, (R)-1-((7-cyano-2-(3′-(3-(((R)-3-hydroxypyrrolidin-1-yl)methyl)-1,7-naphthyridin-8-ylamino)-2,2′-dimethylbiphenyl-3-yl)benzo[d]oxazol-5-yl)methyl)pyrrolidine-3-carboxylic acid], in data set [2], the hygroscopicity result is on record as “hygroscopic”, the “water absorbed (DVS)” value is given as “approximately 8.2%” and the “crystalline form change in the solid state after the DVS analysis” value is listed as “No crystalline form change was observed”. In addition, the “crystalline form after further drying” value in data set [3] (drying on the filter at ambient temperature for 3-6 days, residual THF approximately 0.1 wt %) is “remained unchanged”. In data set [1], the “decomposition temperature (TGA)” value was “above 140 °C”.

Turning to `Cc1c(Nc2nccc3cc(CN4CC[C@@H](O)C4)cnc23)cccc1-c1cccc(-c2nc3cc(CN4CC[C@@H](C(=O)O)C4)cc(C#N)c3o2)c1C` [Form I, (R)-1-((7-cyano-2-(3′-(3-(((R)-3-hydroxypyrrolidin-1-yl)methyl)-1,7-naphthyridin-8-ylamino)-2,2′-dimethylbiphenyl-3-yl)benzo[d]oxazol-5-yl)methyl)pyrrolidine-3-carboxylic acid], in data set [2], the hygroscopicity result is listed as “hygroscopic”. Also, the “water absorbed (DVS)” value in data set [2] is recorded as “approximately 6.5%”. The “crystalline form change in the solid state after the DVS analysis” value in data set [2] is “No crystalline form change was observed”. The “change in solid state form / hydrate formation” value is “no change in solid state form” in data set [3] (after stirring in water at ambient temperature for overnight); “no change in solid state form” in data set [3] (cycling from 5% RH to 95% RH and back to 5% RH at 25° C. and 5% RH interval); “no change in solid state form” in data set [3] (drying under dry nitrogen gas (N2) at 25° C. for one day); “no change in solid state form” in data set [3] (humidifying under 95% RH/25° C. for three days). In addition, the “thermodynamic stability of the crystalline form” value in data set [3] (under the current investigated process conditions) is recorded as “thermodynamically most stable crystalline form”. Besides, in data set [1], the “decomposition temperature (TGA)” value was “above 160 °C”.

In the case of `Cc1c(Nc2nccc3cc(CN4CC[C@@H](O)C4)cnc23)cccc1-c1cccc(-c2nc3cc(CN4CC[C@@H](C(=O)O)C4)cc(C#N)c3o2)c1C` [amorphous powder, (R)-1-((7-cyano-2-(3′-((3-(((R)-3-hydroxypyrrolidin-1-yl)methyl)-1,7-naphthyridin-8-yl)amino)-2,2′-dimethyl-[1,1′-biphenyl]-3-yl)benzo[d]oxazol-5-yl)methyl)pyrrolidine-3-carboxylic acid], in data set [2], the hygroscopicity entry is reported as “hygroscopic” and the “water absorbed (DVS)” value is on record as “approximately 12%”. Also, the “decomposition temperature (TGA)” value in data set [1] is “above 170 °C”.

The values are drawn from US11760756B2, “Crystalline form of a PD-1/PD-L1 inhibitor” (Incyte Corporation, priority 2020, dated 2023).
